The record followed here is patent US20260152527A1, “NOVEL MELANOCORTIN ANALOGS” (priority 2022, published 2026).

Data set [1] in a line: Thermodynamic solubility study in water. In kind it is physicochemical. The following applies: Table 8; read-out: Solubility. As for the experimental part: The study was conducted in water. Water was added into compound powder to make a 10 mg/mL solution. Sample tubes were shaken at the vibrator for 1 hour (1000 rpm) and then equilibrated overnight at room temperature. Samples were centrifuged at 12000 rpm for 10 min to precipitate undissolved particles. Supernatants were transferred from tubes to a new plate. An aliquot of the supernatant after centrifugation was taken from each well, then analyzed by LC-MS/MS. The concentration of the supernatants was quantified by a standard curve.

The next data set deals with T1, human recombinant MC1R (Homo sapiens, UniProt Q01726).
T1 construct: host or cells: CHO-K1
T1 sequence (Q01726 whole entry): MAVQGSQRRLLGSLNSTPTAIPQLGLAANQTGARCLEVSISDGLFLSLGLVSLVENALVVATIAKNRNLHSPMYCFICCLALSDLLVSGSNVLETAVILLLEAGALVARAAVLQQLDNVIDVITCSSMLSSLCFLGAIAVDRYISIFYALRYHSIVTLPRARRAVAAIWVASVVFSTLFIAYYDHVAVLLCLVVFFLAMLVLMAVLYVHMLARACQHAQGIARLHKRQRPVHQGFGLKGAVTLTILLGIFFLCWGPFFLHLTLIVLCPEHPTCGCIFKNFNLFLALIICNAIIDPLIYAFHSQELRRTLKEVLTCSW
Kind of data set: cyclic AMP (cAMP) functional assay, MC1R stable cell line (CHO-K1).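 Also: cells with test compound for 60 min at room temperature in buffer containing IBMX, then cAMP quantified by Eu-cAMP tracer and ULight anti-cAMP detection.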 It counts as cell-based.

Another data set concerns the target T2, human recombinant MC4R (Homo sapiens, UniProt P32245).
T2 construct: host or cells: CHO-K1/Gα15
Kind of data set: Ca2+ signalling functional assay, MC4R stable cell line (CHO-K1/Gα15). In kind it is cell-based.

For the next data set, the target named is T3, human recombinant MC5R (Homo sapiens, UniProt P33032).
T3 construct: host or cells: CHO-K1/Ga15
T3 sequence (P33032 whole entry): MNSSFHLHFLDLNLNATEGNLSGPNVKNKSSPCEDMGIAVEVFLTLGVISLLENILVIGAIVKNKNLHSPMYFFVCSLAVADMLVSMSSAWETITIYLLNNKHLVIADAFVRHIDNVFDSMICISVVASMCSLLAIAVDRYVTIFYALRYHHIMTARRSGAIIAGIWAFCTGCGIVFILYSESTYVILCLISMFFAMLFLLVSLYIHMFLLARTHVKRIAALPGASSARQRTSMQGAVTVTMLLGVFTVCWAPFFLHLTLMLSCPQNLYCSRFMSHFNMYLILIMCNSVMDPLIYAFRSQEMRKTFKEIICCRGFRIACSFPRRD
Kind of data set: Ca2+ signalling functional assay, MC5R stable cell line (CHO-K1/Ga15). In kind it is cell-based.

The subject of data set [2] is corneal edema following Descemetorhexis without Endothethelial Keratoplasty (DWEK) surgery. In kind it is in vivo. The conditions noted are these: rabbit. As to the method:
To evaluate the efficacy of a peptide formulation in reducing corneal edema following Descemetorhexis without Endothethelial Keratoplasty (DWEK) surgery a study in rabbits was undertaken. […] A Table summarizing the parameters regarding the study is provided in FIGS. 5A-5B and a schematic exemplifying the timeline of the study is provided in FIG. 6.
Treatment was administered once (QD) or twice daily (BID) with approximately 6-8 hours between each BID dose for 28 days.
The rabbits were subjected to a surgical procedure prior to administering topical treatment. The animals received buprenorphine (0.01-0.05 mg/kg SC) and were sedated immediately prior to the procedure with ketamine/xylazine cocktail (20-50/4-10 mg/kg IM). Aseptic precautions were taken for the surgical procedure. […] Sterile eyewash was then used to irrigate the ocular surface of the left eye. […] The animal's corneal epithelium was marked with a circular ring (5 mm) to create a template for resection of the host tissue. […] Descemet's membrane was scored peripherally using a reverse Terry-Sinskey hook, and then Descemet's membrane was peeled from the overlying stroma. Descemet's membrane was removed using forceps. Viscoelastic was removed by Irrigation Aspiration (IA) using balanced salt saline (BSS). […]
In addition, tonometry was performed by a veterinary ophthalmologist or a trained technician. Intraocular pressure (IOP) was measured in both eyes of all animals at days 2, 4, 8, 15, 22, and 29. […] Six consecutive measurements were obtained and the average IOP shown on the display was recorded. Three independent measurements were obtained and recorded for each eye.
Pachymetry was also performed by a veterinary ophthalmologist or trained technician on days 2, 4, 8, 15, 22, and 29. Corneal thickness was measured in both eyes using an ultrasonic pachymeter. […]
Optical coherence tomography (OS only) was also measured in the animals. […]

The nature of data set [3]: In vivo topical administration pharmacokinetics / tissue distribution of K173, rat. The following applies: four days of BID topical dosing. As for the experimental part:
To evaluate the pharmacokinetics of the peptide formulations following topical administration a study in rats was undertaken.
Treatment was administered twice daily (BID) with approximately 6-8 hours between BID doses.
All animals underwent twice daily cage side clinical observations with particular attention paid to the eyes. Animals were not tranquilized for the examinations.
When animals were terminal, blood was collected by inserting a 25G needle into the heart and the animal was exsanguinated and the blood was collected into K2EDTA tubes for plasma collection. […] Once centrifuged, the clear plasma was transferred to a prelabelled polypropylene tube, snap frozen and stored at approximately −80° C.
Following euthanasia, eyes were enucleated and rinsed twice with fresh ice-cold PBS. […] The anterior segment and lens were removed and the neurosensory retina was dissected into pre-weighed 2 mL polypropylene tube, re-weighed and snap frozen. The brain was collected and weighted and the hypothalamus, hippocampus, and remining brain were dissected, placed in pre-weighted polypropylene tubes, re-weighed, and snap frozen. All tissues were stored at −80° C.
The concentrations of K173 in the aqueous humor, retina, hypothalamus, hippocampus, remaining brain tissue, and plasma was measured and the values are provided in Table 7.

The conditions of data set [4]: rabbit.
From the text: To evaluate the effects of the peptide formulations following topical administration and subconjunctival injection a study in rabbits was undertaken. Animals were acclimated to the study and, upon completion of the acclimation period, each animal was physically examined for determination of suitability for study participation. Animals determined to be in good health were randomized into study groups to achieve averaged mean body weight in each group. (N=24; 3 animals per study group) Animals will be uniquely identified by corresponding cage card number and ear tag.
For topical ocular dosing the designated peptide formulations (35 L) were administered to the eye of each animal using a calibrated pipette. With the animal manually restrained, the upper eyelid of the eye was gently elevated to expose the cornea. Treatment was then be applied to the cornea without contacting the eye with the pipette tip. One topical drop was applied per eye for four days. Tissue collection (aqueous humor) occurred 30 minutes after last dose.
A veterinary ophthalmologist performed complete ocular examinations using a slit lamp biomicroscope and indirect ophthalmoscope to evaluate ocular surface morphology and anterior and posterior segment inflammation on all animals prior to injection to serve as a baseline for enrollment into the study as well as on specific study days. Animals were not tranquilized for the examinations.
At least 1.0 mL of whole blood was drawn from the marginal ear vein or cardiac puncture (terminal bleed only) into K2EDTA tubes for plasma collection. After collection, the tubes were gently mixed by inverting the tubes 5-8 times. Blood samples were stored on wet ice prior to plasma processing. The samples were centrifuged at 4° C. for 10 minutes at 2000 g in a swinging bucket refrigerated centrifuge. Within 20 minutes of the blood collection time, the clear plasma was transferred to prelabelled polypropylene tubes, snap frozen, and stored frozen at approximately −80° C.
Following euthanasia, eyes were enucleated and marked at the 12:00 position. Aqueous humor was removed via a 27 or 30 gauge syringe following a 10-15 second rinse with PBS and blot with Kimwipe, and snap frozen by immersing in liquid nitrogen. The whole globe was then snap frozen in liquid nitrogen and stored at −80° C. to be held for potential dissection. All samples were placed into individual vials and weighed. The plasma and aqueous humor were collected.
The peptides were evaluated for their ocular tolerability and pharmacokinetics following repeated (QID×4 days) topical instillation or a single subconjunctival injection in rabbits. The study examined penetration into the anterior chamber and concentrations in the plasma by measuring at a single time point.

Structures are written as SMILES. pIC50: −log10 of the molar value. Values after ≈ are worked out from the molar mass of the structure shown. Positions of bridges follow the written chain, without caps; N, C: chain ends. Non-standard residues stand in square brackets, D forms with d. Residues, ends and D or L forms follow the SMILES beside them. Triazole bridges read from a SMILES are 1,4-linked. *: point of attachment. Benzoyl(3,5-(OH)2) = O=C(c1cc(O)cc(O)c1)*; Lys(N3) = [N-]=[N+]=NCCCC[C@H](N)C(=O)O; dPhe(4-F) = N[C@H](Cc1ccc(F)cc1)C(=O)O; Nle = CCCC[C@H](N)C(=O)O; Pra = C#CC[C@H](N)C(=O)O

T2 sequence (P32245 whole entry): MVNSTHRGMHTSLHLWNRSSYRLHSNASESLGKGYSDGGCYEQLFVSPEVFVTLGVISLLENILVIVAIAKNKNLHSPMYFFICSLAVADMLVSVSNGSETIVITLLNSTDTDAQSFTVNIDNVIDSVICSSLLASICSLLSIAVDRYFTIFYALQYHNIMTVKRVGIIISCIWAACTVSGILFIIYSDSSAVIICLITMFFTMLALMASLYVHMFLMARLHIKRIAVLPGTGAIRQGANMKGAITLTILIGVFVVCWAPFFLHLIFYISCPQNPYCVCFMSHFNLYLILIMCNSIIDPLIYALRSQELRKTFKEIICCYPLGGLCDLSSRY
Method for human recombinant MC1R: The cyclic AMP (cAMP) functional assay was performed on a human recombinant MC1R stable cell line (CHO-K1, GenScript). The cells were cultured at 37° C. and 5% CO2 with culture medium (90% Ham's F-12K (Kaighn's)+10% FBS+400 μg/mL G418). […] Then, 100 nL of compounds were transferred to the assay plate by the Echo machine. Cells were washed with PBS and then detached by incubation with 0.05% (w/v) Trypsin EDTA at 37° C. for 2 to 5 mins. Cells were collected with stimulation buffer (1×HBSS with 5 mM HEPES+0.2 mM IBMX+0.1% BSA) and 10 ul of cells (the density of 2,500 cells/well) solution was transferred to assay plate, centrifuged at 600 rpm for 3 min and then incubated with compounds at room temperature for 60 min. After that, 5 μL 4×Eu-cAMP tracer solution and 5 μL 4×ULight™-anti-cAMP solution was added into the cells, centrifuged at 600 rpm for 3 min and incubated for 60 min. The cAMP signal was detected with Envision® Multimode Plate Reader (PerkinElmer).
Method for human recombinant MC4R: The Ca^2+ signalling functional assay was performed on a human recombinant MC4R stable cell line (CHO-K1/Gα15, GenScript). The cells were cultured at 37° C. and 5% CO2 with culture medium (90% Ham's F-12K (Kaighn's)+10% FBS+8 μg/mL Puromycin+100 μg/mL Hygromycin B). Cells were washed with PBS and then detached by incubation with 0.05% (w/v) Trypsin EDTA at 37° C. for 2-5 mins. Detached cells were suspended in Ham's F-12K (Kaighn's) (containing 10% FBS) and a 50 μL cell suspension was seeded into each well of a 384-well assay plate at a density of 15,000 cells/well. Cells were allowed to settle overnight at 37° C., 5% CO2. The next day, the assay plate was centrifuged and the media was replaced with dye (1×) in assay buffer (containing HBSS, HEPES 20 mM and probenecid 1 mM) and incubated for 1 h at 37° C. […] Then, 100 nL of compounds were transferred to the compound plate by the Echo machine. 30 μL assay buffer was added to the compounds plate and then shaken for 20 to 40 minutes. The plates were placed on the FLIPR and 15 μL of the compound was added to each well, then calcium flux signal was measured.
Method for human recombinant MC5R: The Ca^2+ signalling functional assay was performed on a human recombinant MC5R stable cell line (CHO-K1/Ga15, GenScript). The cells were cultured at 37° C. and 5% C02 with culture medium (90% Ham's F-12K (Kaighn's)+10% FBS+400 μg/mL G418+100 μg/mL Hygromycin B). Cells were washed with PBS and then detached by incubation with 0.05% (w/v) Trypsin EDTA at 37° C. for 2 to 5 mins. Detached cells were suspended in Ham's F-12K (Kaighn's) (containing 10% FBS) and a 50 μL cell suspension is seeded into each well of a 384-well assay plate at a density of 15,000 cells/well. Cells were allowed to settle overnight at 37° C., 5% CO2. […] Then, 100 nL of compounds were transferred to the compound plate by the Echo machine. Thirty microliter assay buffer was added to the compounds plate and then shaken for 20-40 minutes. The plates were placed on the FLIPR and 15 μL of the compound was added to each well, then calcium flux signal was measured.

In general, solubility refers to how much of the substance goes into solution per volume. The EC50 is the concentration at which the effect is half-maximal. One may read the pIC50 as the negative decadic logarithm of the IC50, by convention in mol/L. As to `CCCC[C@H](NC(=O)c1cc(O)cc(O)c1)C(=O)N[C@H]1CCCCn2cc(nn2)C[C@@H](C(N)=O)NC(=O)[C@H](Cc2c[nH]c3ccccc23)NC(=O)[C@H](CCCNC(=N)N)NC(=O)[C@@H](Cc2ccc(F)cc2)NC(=O)[C@H](Cc2c[nH]cn2)NC1=O` [KR-072, HyBA-Nle-[Lys(N3)-His-Dphe(4-F)-Arg-Trp-Pra]-NH2] ({Benzoyl(3,5-(OH)2)}-[Nle][Lys(N3)]H[dPhe(4-F)]RW[Pra]-NH2; triazole 2-7), the solubility in data set [1] was 6.47 mg/mL (≈ 5.58 mM). Moreover, the 50% effective concentration (EC50) at human recombinant MC1R turned out to be 0.0019 nM; on human recombinant MC4R, 98.6 nM; at human recombinant MC5R, 78 nM. Moreover, the pIC50 was 11.72 at human recombinant MC1R (cAMP functional assay) and 7.11 on human recombinant MC5R (calcium flux functional assay). Also, the “corneal edema by stromal thickness measurements (OCT)” value in data set [2] (DWEK, topical 0.05, 0.1, 0.5 mg/mL QD vs vehicle) is “decrease corneal edema”. In data set [2] (topical 0.1 mg/mL), the “wound healing / rate of wound closure (corneal flat mount analysis)” value is “enhanced wound healing”. The “efficacy on corneal stromal thickness by OCT” value in data set [2] (two lowest treatment options 0.05 mg/mL or 0.1 mg/mL) is recorded as “Statistically significant efficacy”. Also, in data set [3], the “K173 level in the neural retina” value is “high levels”. The “K173 presence in brain” value in data set [3] (hypothalamus, hippocampus, remaining brain) is “found in all parts of the brains”. Also, the “Topical Ocular Permeability (nM ± SEM)” value in data set [4] amounted to 15.5 ± 2.6 nM.
